Measured values from PubChem BioAssay (NCI).
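All cell lines were grown in 96-well plates and treated with compound for 48 hours. TGI is the concentration that stops growth completely.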

Columns and labels:
Assay in all cases: inhibition of tumour cell growth, NCI panel, 48 h
MDA-MB-231 breast = tested on: MDA-MB-231 breast
HCT-15 colon = tested on: HCT-15 colon
KM12 colon = tested on: KM12 colon
SF-539 CNS = tested on: SF-539 CNS
BT-549 breast = tested on: BT-549 breast
SN12C renal = tested on: SN12C renal
OVCAR-5 ovarian = tested on: OVCAR-5 ovarian
CAKI-1 renal = tested on: CAKI-1 renal
MALME-3M melanoma = tested on: MALME-3M melanoma
OVCAR-4 ovarian = tested on: OVCAR-4 ovarian
EKVX NSCLC = tested on: EKVX NSCLC
SF-268 CNS = tested on: SF-268 CNS
HS 578T breast = tested on: HS 578T breast
UACC-62 melanoma = tested on: UACC-62 melanoma
K-562 leukemia = tested on: K-562 leukemia
SW-620 colon = tested on: SW-620 colon
MDA-N = tested on: MDA-N
MOLT-4 leukemia = tested on: MOLT-4 leukemia
NCI/ADR-RES ovarian = tested on: NCI/ADR-RES ovarian
MDA-MB-435 = tested on: MDA-MB-435
SNB-19 CNS = tested on: SNB-19 CNS
OVCAR-3 ovarian = tested on: OVCAR-3 ovarian
UO-31 renal = tested on: UO-31 renal
RPMI-8226 leukemia = tested on: RPMI-8226 leukemia
SR leukemia = tested on: SR leukemia
SK-MEL-2 melanoma = tested on: SK-MEL-2 melanoma
IGROV1 ovarian = tested on: IGROV1 ovarian
SK-MEL-28 melanoma = tested on: SK-MEL-28 melanoma
SNB-75 CNS = tested on: SNB-75 CNS
HCC-2998 colon = tested on: HCC-2998 colon
HT29 colon = tested on: HT29 colon
NCI-H226 lung = tested on: NCI-H226 lung
SK-MEL-5 melanoma = tested on: SK-MEL-5 melanoma
HOP-62 NSCLC = tested on: HOP-62 NSCLC
MCF7 breast = tested on: MCF7 breast
HL-60(TB) leukemia = tested on: HL-60(TB) leukemia
TK-10 renal = tested on: TK-10 renal
NCI-H23 lung = tested on: NCI-H23 lung
NCI-H522 lung = tested on: NCI-H522 lung
ACHN renal = tested on: ACHN renal
OVCAR-8 ovarian = tested on: OVCAR-8 ovarian
COLO 205 colon = tested on: COLO 205 colon
NCI-H460 lung = tested on: NCI-H460 lung
UACC-257 melanoma = tested on: UACC-257 melanoma
786-0 renal = tested on: 786-0 renal
RXF 393 renal = tested on: RXF 393 renal
SF-295 CNS = tested on: SF-295 CNS
LOX IMVI melanoma = tested on: LOX IMVI melanoma
PC-3 prostate = tested on: PC-3 prostate
A498 renal = tested on: A498 renal
U251 CNS = tested on: U251 CNS
HCT-116 colon = tested on: HCT-116 colon
SK-OV-3 ovarian = tested on: SK-OV-3 ovarian
HOP-92 NSCLC = tested on: HOP-92 NSCLC
A549 NSCLC = tested on: A549 NSCLC
DU-145 prostate = tested on: DU-145 prostate
CCRF-CEM leukemia = tested on: CCRF-CEM leukemia
M14 melanoma = tested on: M14 melanoma

Oc1[nH]c(=S)[nH]c1/C=C1/C(c2ccccc2)=Nc2ccccc21
TGI (MDA-MB-231 breast): 33.5 µM
TGI (HCT-15 colon): 31.2 µM
TGI (KM12 colon): 29.3 µM
TGI (SF-539 CNS): 31.2 µM
TGI (BT-549 breast): 28.6 µM
TGI (SN12C renal): 38.7 µM
TGI (OVCAR-5 ovarian): 36.1 µM
TGI (CAKI-1 renal): 37.5 µM
TGI (MALME-3M melanoma): 26.4 µM
TGI (OVCAR-4 ovarian): 57.4 µM
TGI (EKVX NSCLC): 36.4 µM
TGI (SF-268 CNS): > 100 µM
TGI (HS 578T breast): 42.4 µM
TGI (UACC-62 melanoma): 26.4 µM
TGI (K-562 leukemia): 33.7 µM
TGI (SW-620 colon): 31.9 µM
TGI (MDA-N): 28.4 µM
TGI (MOLT-4 leukemia): 32.1 µM
TGI (NCI/ADR-RES ovarian): 51.7 µM
TGI (MDA-MB-435): 26.7 µM
TGI (SNB-19 CNS): 76.3 µM
TGI (OVCAR-3 ovarian): 30 µM
TGI (UO-31 renal): 21.4 µM
TGI (RPMI-8226 leukemia): 36.2 µM
TGI (SR leukemia): 27.9 µM
TGI (SK-MEL-2 melanoma): 26 µM
TGI (IGROV1 ovarian): 30.3 µM
TGI (SK-MEL-28 melanoma): 30.3 µM
TGI (SNB-75 CNS): 28.8 µM
TGI (HCC-2998 colon): 36.9 µM
TGI (HT29 colon): 30.5 µM
TGI (NCI-H226 lung): 35.8 µM
TGI (SK-MEL-5 melanoma): 25.8 µM
TGI (HOP-62 NSCLC): 29.1 µM
TGI (MCF7 breast): 28.5 µM
TGI (HL-60(TB) leukemia): 26.1 µM
TGI (TK-10 renal): 44.5 µM
TGI (NCI-H23 lung): 29 µM
TGI (NCI-H522 lung): 26.3 µM
TGI (ACHN renal): 78 µM
TGI (OVCAR-8 ovarian): 28.8 µM
TGI (COLO 205 colon): 31.8 µM
TGI (NCI-H460 lung): 27.6 µM
TGI (UACC-257 melanoma): 29 µM
TGI (786-0 renal): 28.4 µM
TGI (RXF 393 renal): 28.7 µM
TGI (SF-295 CNS): 26.5 µM
TGI (LOX IMVI melanoma): 24.3 µM
TGI (PC-3 prostate): 25.6 µM
TGI (A498 renal): 25.3 µM
TGI (U251 CNS): 34.9 µM
TGI (HCT-116 colon): 27.5 µM

CC(C)(C)C1CCC2c3c([nH]c4ccccc34)C3C(=O)N(c4ccccc4[N+](=O)[O-])C(=O)C3C2C1 (stereo unspecified)
TGI (MDA-MB-231 breast): 27.2 µM
TGI (HCT-15 colon): 37.6 µM
TGI (SF-539 CNS): 61.3 µM
TGI (BT-549 breast): 68.5 µM
TGI (SN12C renal): 64.3 µM
TGI (OVCAR-5 ovarian): 50.5 µM
TGI (CAKI-1 renal): 32.4 µM
TGI (MALME-3M melanoma): 43 µM
TGI (SK-OV-3 ovarian): > 100 µM
TGI (HOP-92 NSCLC): 9.1 µM
TGI (EKVX NSCLC): 44.7 µM
TGI (HS 578T breast): 49.5 µM
TGI (UACC-62 melanoma): 28.2 µM
TGI (K-562 leukemia): 27.8 µM
TGI (SW-620 colon): 27 µM
TGI (MDA-N): 43.9 µM
TGI (NCI/ADR-RES ovarian): > 100 µM
TGI (MDA-MB-435): > 100 µM
TGI (SNB-19 CNS): 82.5 µM
TGI (OVCAR-3 ovarian): 28.6 µM
TGI (UO-31 renal): > 100 µM
TGI (RPMI-8226 leukemia): > 100 µM
TGI (SR leukemia): > 100 µM
TGI (SK-MEL-2 melanoma): 35.6 µM
TGI (IGROV1 ovarian): 76 µM
TGI (HCC-2998 colon): 18.2 µM
TGI (HT29 colon): 20.1 µM
TGI (A549 NSCLC): 33.9 µM
TGI (NCI-H226 lung): 57.2 µM
TGI (SK-MEL-5 melanoma): 26.7 µM
TGI (HOP-62 NSCLC): 21.5 µM
TGI (MCF7 breast): 39.1 µM
TGI (HL-60(TB) leukemia): 27.5 µM
TGI (TK-10 renal): 43.3 µM
TGI (NCI-H23 lung): 22.1 µM
TGI (DU-145 prostate): 22.4 µM
TGI (CCRF-CEM leukemia): 53.1 µM
TGI (ACHN renal): 61.3 µM
TGI (OVCAR-8 ovarian): > 100 µM
TGI (COLO 205 colon): 24.1 µM
TGI (NCI-H460 lung): 27.6 µM
TGI (M14 melanoma): 33.8 µM
TGI (UACC-257 melanoma): 90.6 µM
TGI (786-0 renal): 28.9 µM
TGI (RXF 393 renal): 19 µM
TGI (SF-295 CNS): 31.2 µM
TGI (LOX IMVI melanoma): 31.4 µM
TGI (PC-3 prostate): 26.1 µM
TGI (A498 renal): 36.5 µM
TGI (U251 CNS): 40.3 µM
TGI (HCT-116 colon): 22.7 µM

CC12CCC(=O)N1c1cncnc1N2 (stereo unspecified)
TGI (HCT-15 colon): > 10 µM
TGI (KM12 colon): > 10 µM
TGI (SF-539 CNS): > 10 µM
TGI (BT-549 breast): > 10 µM
TGI (SN12C renal): > 10 µM
TGI (OVCAR-5 ovarian): > 10 µM
TGI (MALME-3M melanoma): > 10 µM
TGI (SK-OV-3 ovarian): > 10 µM
TGI (HOP-92 NSCLC): > 10 µM
TGI (OVCAR-4 ovarian): > 10 µM
TGI (EKVX NSCLC): > 10 µM
TGI (SF-268 CNS): > 10 µM
TGI (HS 578T breast): > 10 µM
TGI (UACC-62 melanoma): > 10 µM
TGI (K-562 leukemia): > 10 µM
TGI (SW-620 colon): > 10 µM
TGI (MDA-N): > 10 µM
TGI (MOLT-4 leukemia): > 10 µM
TGI (NCI/ADR-RES ovarian): > 10 µM
TGI (MDA-MB-435): > 10 µM
TGI (SNB-19 CNS): > 10 µM
TGI (OVCAR-3 ovarian): > 10 µM
TGI (UO-31 renal): > 10 µM
TGI (SR leukemia): > 10 µM
TGI (SK-MEL-2 melanoma): > 10 µM
TGI (IGROV1 ovarian): > 10 µM
TGI (SNB-75 CNS): > 10 µM
TGI (HCC-2998 colon): > 10 µM
TGI (HT29 colon): > 10 µM
TGI (A549 NSCLC): > 10 µM
TGI (NCI-H226 lung): > 10 µM
TGI (MCF7 breast): > 10 µM
TGI (HL-60(TB) leukemia): > 10 µM
TGI (TK-10 renal): > 10 µM
TGI (NCI-H23 lung): > 10 µM
TGI (DU-145 prostate): > 10 µM
TGI (NCI-H522 lung): > 10 µM
TGI (CCRF-CEM leukemia): > 10 µM
TGI (ACHN renal): > 10 µM
TGI (OVCAR-8 ovarian): > 10 µM
TGI (NCI-H460 lung): > 10 µM
TGI (M14 melanoma): > 10 µM
TGI (UACC-257 melanoma): > 10 µM
TGI (786-0 renal): > 10 µM
TGI (SF-295 CNS): > 10 µM
TGI (LOX IMVI melanoma): > 10 µM
TGI (PC-3 prostate): > 10 µM
TGI (U251 CNS): > 10 µM
TGI (HCT-116 colon): > 10 µM

COc1ccc2nc3c([N+](=O)[O-])ccc4c3c(c2c1)NCCN4CCN(C)C
TGI (MDA-MB-231 breast): 1.88 µM
TGI (HCT-15 colon): 1.94 µM
TGI (KM12 colon): 1.46 µM
TGI (SF-539 CNS): 1.71 µM
TGI (BT-549 breast): 3.39 µM
TGI (SN12C renal): 3.28 µM
TGI (OVCAR-5 ovarian): 9.89 µM
TGI (CAKI-1 renal): 7.35 µM
TGI (MALME-3M melanoma): 1.56 µM
TGI (SK-OV-3 ovarian): 0.973 µM
TGI (HOP-92 NSCLC): 2.73 µM
TGI (OVCAR-4 ovarian): 0.697 µM
TGI (EKVX NSCLC): 2.78 µM
TGI (SF-268 CNS): 2.41 µM
TGI (HS 578T breast): 3.91 µM
TGI (UACC-62 melanoma): 1.96 µM
TGI (K-562 leukemia): > 10 µM
TGI (SW-620 colon): 1.98 µM
TGI (MDA-N): 1.99 µM
TGI (MOLT-4 leukemia): 7.67 µM
TGI (NCI/ADR-RES ovarian): 3.25 µM
TGI (MDA-MB-435): 3.49 µM
TGI (SNB-19 CNS): 2.27 µM
TGI (OVCAR-3 ovarian): 2.4 µM
TGI (UO-31 renal): 3.42 µM
TGI (RPMI-8226 leukemia): 4.62 µM
TGI (SR leukemia): 7.24 µM
TGI (SK-MEL-2 melanoma): 2.92 µM
TGI (IGROV1 ovarian): 3.15 µM
TGI (SK-MEL-28 melanoma): 3.08 µM
TGI (SNB-75 CNS): 1.57 µM
TGI (HT29 colon): 2.34 µM
TGI (A549 NSCLC): 2.19 µM
TGI (NCI-H226 lung): 7.13 µM
TGI (SK-MEL-5 melanoma): 2.08 µM
TGI (HOP-62 NSCLC): 3.44 µM
TGI (MCF7 breast): > 10 µM
TGI (TK-10 renal): 4.75 µM
TGI (NCI-H23 lung): 2.86 µM
TGI (DU-145 prostate): 4.91 µM
TGI (CCRF-CEM leukemia): 4 µM
TGI (ACHN renal): 1.66 µM
TGI (OVCAR-8 ovarian): > 10 µM
TGI (NCI-H460 lung): 1.46 µM
TGI (M14 melanoma): 1.71 µM
TGI (UACC-257 melanoma): 4.58 µM
TGI (786-0 renal): 1.79 µM
TGI (RXF 393 renal): 2.38 µM
TGI (SF-295 CNS): 1.69 µM
TGI (LOX IMVI melanoma): 1.45 µM
TGI (PC-3 prostate): 1.86 µM
TGI (A498 renal): 3.12 µM
TGI (U251 CNS): 2.54 µM
TGI (HCT-116 colon): 1.3 µM
